Experiments:
Type in all cases: binding
Details in all cases: Compound Concentration 10 µM
panel of 442 kinases [1] = target: T1, panel of 442 kinases (Homo sapiens, UniProt P14616)
T1 construct: purchased KINOMEscan
Description: (§1) We assessed the selectivity of members of this scaffold using the KINOMEscan methodology across a near comprehensive panel of 442 kinases [[18,27]].

panel of 442 kinases [2] = target: T2, panel of 442 kinases (Homo sapiens, UniProt P00533, L858R)
T2 construct: purchased KINOMEscan
T2 sequence (P00533 25-1210 L858R): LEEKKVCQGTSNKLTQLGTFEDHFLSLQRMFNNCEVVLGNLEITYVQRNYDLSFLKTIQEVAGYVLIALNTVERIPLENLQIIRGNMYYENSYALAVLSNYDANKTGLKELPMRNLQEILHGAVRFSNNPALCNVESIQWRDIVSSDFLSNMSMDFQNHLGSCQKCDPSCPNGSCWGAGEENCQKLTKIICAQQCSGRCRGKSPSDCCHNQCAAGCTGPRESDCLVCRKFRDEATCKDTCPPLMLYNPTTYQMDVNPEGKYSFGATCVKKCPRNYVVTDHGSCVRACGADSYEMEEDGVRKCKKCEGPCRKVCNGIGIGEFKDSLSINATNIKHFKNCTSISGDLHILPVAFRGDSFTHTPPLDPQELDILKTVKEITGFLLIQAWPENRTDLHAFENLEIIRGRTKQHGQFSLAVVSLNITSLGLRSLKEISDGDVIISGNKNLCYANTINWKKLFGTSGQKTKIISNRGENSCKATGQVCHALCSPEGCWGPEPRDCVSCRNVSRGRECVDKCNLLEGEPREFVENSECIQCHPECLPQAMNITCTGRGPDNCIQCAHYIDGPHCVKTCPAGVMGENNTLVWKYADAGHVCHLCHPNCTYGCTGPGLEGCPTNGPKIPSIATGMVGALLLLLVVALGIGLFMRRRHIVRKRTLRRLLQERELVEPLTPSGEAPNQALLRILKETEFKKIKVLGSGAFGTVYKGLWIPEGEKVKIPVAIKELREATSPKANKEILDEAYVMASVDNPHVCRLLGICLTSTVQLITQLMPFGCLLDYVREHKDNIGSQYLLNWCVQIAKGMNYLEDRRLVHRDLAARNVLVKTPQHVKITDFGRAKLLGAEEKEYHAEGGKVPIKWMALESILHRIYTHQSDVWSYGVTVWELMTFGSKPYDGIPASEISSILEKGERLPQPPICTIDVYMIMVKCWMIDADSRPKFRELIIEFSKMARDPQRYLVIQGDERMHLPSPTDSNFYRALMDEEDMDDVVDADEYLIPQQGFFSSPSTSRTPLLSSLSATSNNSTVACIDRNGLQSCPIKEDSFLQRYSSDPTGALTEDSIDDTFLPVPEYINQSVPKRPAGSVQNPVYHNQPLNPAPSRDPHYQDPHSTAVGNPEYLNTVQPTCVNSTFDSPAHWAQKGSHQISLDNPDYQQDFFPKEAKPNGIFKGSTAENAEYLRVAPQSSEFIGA
Description: as §1

panel of 442 kinases [3] = target: T3, panel of 442 kinases (Homo sapiens, UniProt Q92630)
T3 construct: purchased KINOMEscan
T3 sequence (Q92630 1-601): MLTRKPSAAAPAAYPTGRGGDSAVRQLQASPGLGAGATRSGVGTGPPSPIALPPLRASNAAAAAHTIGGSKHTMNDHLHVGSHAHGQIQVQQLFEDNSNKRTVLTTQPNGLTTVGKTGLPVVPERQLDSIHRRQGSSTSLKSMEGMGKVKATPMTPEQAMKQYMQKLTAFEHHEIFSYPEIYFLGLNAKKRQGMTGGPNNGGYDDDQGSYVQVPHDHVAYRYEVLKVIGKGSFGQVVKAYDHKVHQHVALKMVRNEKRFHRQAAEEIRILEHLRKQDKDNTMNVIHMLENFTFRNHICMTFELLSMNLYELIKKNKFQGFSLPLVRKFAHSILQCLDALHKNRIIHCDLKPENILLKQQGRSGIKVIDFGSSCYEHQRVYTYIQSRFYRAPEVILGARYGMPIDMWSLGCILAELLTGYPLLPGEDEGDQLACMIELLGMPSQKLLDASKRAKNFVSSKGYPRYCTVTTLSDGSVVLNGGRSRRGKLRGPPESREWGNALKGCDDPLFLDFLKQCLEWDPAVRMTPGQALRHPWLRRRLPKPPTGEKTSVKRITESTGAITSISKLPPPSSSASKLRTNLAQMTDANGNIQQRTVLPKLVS
Description: as §1

T1 sequence (P14616 27-1297): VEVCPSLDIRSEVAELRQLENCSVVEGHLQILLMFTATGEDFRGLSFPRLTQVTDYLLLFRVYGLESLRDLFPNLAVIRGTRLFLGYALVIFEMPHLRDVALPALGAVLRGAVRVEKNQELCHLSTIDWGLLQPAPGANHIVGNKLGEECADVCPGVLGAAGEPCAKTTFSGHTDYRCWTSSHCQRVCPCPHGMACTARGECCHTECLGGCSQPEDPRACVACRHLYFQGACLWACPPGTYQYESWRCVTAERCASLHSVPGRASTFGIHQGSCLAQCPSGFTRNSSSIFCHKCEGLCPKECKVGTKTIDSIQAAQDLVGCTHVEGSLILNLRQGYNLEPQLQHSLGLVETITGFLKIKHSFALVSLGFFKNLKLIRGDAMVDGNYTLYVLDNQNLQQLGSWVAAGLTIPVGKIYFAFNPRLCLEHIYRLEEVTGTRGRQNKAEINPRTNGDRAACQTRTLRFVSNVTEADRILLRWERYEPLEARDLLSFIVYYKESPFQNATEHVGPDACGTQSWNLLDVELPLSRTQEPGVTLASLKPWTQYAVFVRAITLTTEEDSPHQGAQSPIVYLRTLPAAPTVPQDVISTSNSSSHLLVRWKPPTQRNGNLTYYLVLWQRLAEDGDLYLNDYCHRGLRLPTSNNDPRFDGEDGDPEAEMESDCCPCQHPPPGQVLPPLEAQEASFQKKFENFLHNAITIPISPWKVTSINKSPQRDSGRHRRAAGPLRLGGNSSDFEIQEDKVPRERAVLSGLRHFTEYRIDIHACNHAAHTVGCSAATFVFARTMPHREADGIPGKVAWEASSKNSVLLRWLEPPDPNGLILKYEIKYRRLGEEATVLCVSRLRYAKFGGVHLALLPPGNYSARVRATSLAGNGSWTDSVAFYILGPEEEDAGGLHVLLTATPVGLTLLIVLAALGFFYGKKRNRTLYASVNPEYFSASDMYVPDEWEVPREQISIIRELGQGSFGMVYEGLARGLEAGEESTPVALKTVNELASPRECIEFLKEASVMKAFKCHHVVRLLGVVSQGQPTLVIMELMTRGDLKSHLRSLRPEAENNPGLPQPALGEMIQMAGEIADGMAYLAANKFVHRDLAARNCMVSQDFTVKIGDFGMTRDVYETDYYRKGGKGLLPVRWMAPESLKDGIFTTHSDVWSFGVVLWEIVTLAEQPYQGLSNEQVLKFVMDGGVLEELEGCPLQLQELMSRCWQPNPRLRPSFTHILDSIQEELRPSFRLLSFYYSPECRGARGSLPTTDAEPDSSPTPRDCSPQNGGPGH

Structure (SMILES) | KINOMEscan: INSRR (panel of 442 kinases [1]) | KINOMEscan: EGFR(L858R) (panel of 442 kinases [2]) | KINOMEscan: DYRK2 (panel of 442 kinases [3])
COc1cc(C(=O)N2CCC(N3CCN(C)CC3)CC2)ccc1Nc1ncc2c(n1)N(C)c1ccccc1C(=O)N2C [15 (LRRK2-IN-1)] | 97 | 79 | 76
COc1cc(C(=O)N2CCC(N3CCN(C)CC3)CC2)ccc1Nc1ncc2c(n1)N1CCc3cccc(c31)C(=O)N2C [Compound 24] |  | 62 | 82
COc1cc(C(=O)N2CCC(N3CCN(C)CC3)CC2)ccc1Nc1ncc2c(n1)N(C1CCCC1)c1ccccc1C(=O)N2C [Compound 25, 11-cyclopentyl-2-((2-methoxy-4-(4-(4-methylpiperazin-1-yl)piperidine-1-carbonyl)phenyl)amino)-5-methyl-5H-benzo[e]pyrimido[5,4-b][1,4]diazepin-6(11H)-one] | 94 | 83 | 100
CCOc1cc(C(=O)N2CCC(N3CCN(C)CC3)CC2)ccc1Nc1ncc2c(n1)N(C1CCCC1)c1ccccc1C(=O)N2C [Compound 26] | 100 | 100 | 100

— PMC3914206
